Data: patent US8481500B2, “Compounds having neuroprotective properties” (Universidad del Pais Vasco, priority 2005, dated 2013)
Entries after “also recorded” stand apart in the source; their conditions may differ.

Experiments:
[1] = test system: neuron cultures from the brain cortex; experiment: Excitotoxic neuronal death in neuron cultures (glutamate or NMDA); format: cell-based, Sprague Dawley rat; conditions: glutamate or NMDA 50 μM for 10 minutes; antioxidant 100 nM, kept 3 hours; p<0.001 vs agonist only
Method: The neuron cultures were obtained from the brain cortex of Sprague Dawley rat embryos of 18 days of gestation (Larm et al., 1996, Eur J Pharmacol 314: 249-54; Cheung et al., 1998, Neuropharmacol 37: 1419-29). The cells were nourished Neurobasal medium supplemented with B27 supplement (Invitrogen).
The glutamate or NMDA (N-methyl-D-aspartate) agonists were applied, both at a concentration of 50 μM, for 10 minutes. The antioxidants, morin and mangiferin, were added during the exposure of the agonist at a concentration of 100 nM and were maintained in the medium for 3 hours until cell viability was measured by means of fluorescein diacetate. […] The values are shown as the mean±S.E.M. of the quadruplicates from 3-4 different experiments.

oligodendrocyte cultures = experiment: Oligodendrocyte culture death caused by AMPA; format: cell-based; conditions: AMPA 10 μM for 5 minutes; polyphenol 10-100000 nM added 24 hours before; read 24 hours later
Method: The oligodendrocyte cultures were in turn incubated with AMPA [(RS)-α-amino-3-hydroxy-5-methyl-4-isoxazolepropionic hydrobromic acid] agonists, at a 10 μM concentration for 5 minutes. The polyphenols, mangiferin and morin, were added 24 hours before the exposure of the agonist and until the end of the experiments at concentrations comprised between 10 and 100000 nM, and cell viability was measured by means of calcein fluorimetry 24 hours later. The values shown in FIG. 1B show the percentage of normalized cell death±S.E.M. of the triplicates according to the logarithm of the concentration from three different experiments. *: p<0.05; **: p<0.01.

[2] = test system: superoxide production in the CA1 hippocampus region; experiment: Superoxide production in the CA1 hippocampus region after transient cerebral ischemia; format: in vivo, Sprague-Dawley rats; conditions: 1 day after transient global ischemia; i.p. 10 mg/kg 30 minutes after ischemia, then 5 mg/kg every 12 hours
Method: (§1) Four experimental groups of Sprague-Dawley rats (each group contained 20 animals) were randomly selected: control (C), ischemic (ISCH), ischemic animals treated with mangiferin (I+MNG), and ischemic animals treated with morin (I+MOR). Transient cerebral ischemia was induced by means of occlusion of the vertebral and common carotid arteries for 10 minutes. The criteria for determining cerebral ischemia were the bilateral loss of stretch reflex, limb stiffness and mydriasis. The rectal and body temperature was maintained at 37° C. during surgery and the ischemia. […] The group of control animals was treated similarly to the group with ischemia, but none of their common carotid arteries was occluded.
(§2) Mangiferin and morin were administered intraperitoneally at a concentration of 10 mg/kg of body weight, 30 minutes after the ischemic stimulus and then at a concentration of 5 mg/kg every 12 hours for 7 days.
The method described by Chan et al., 1998 (J Neurosci 18: 8292-99) was followed. […] The fluorescence was examined in cryostat sections (10 μm) and was analyzed with a fluorescence microscope (Zeiss Axiophot). The images were taken with a digital camera (Axio Vision, Zeiss) and analyzed with the Image Pro Plus program.

[3] = test system: transient cerebral ischemia; experiment: NeuN+ cell count in the pyramidal layer of CA1 hippocampus after transient cerebral ischemia; format: in vivo, Sprague-Dawley rats; conditions: 7 and 70 days after ischemia; compared with placebo; i.p. 10 mg/kg, then 5 mg/kg every 12 hours for 7 days
Method: as §1
Mangiferin and morin were administered intraperitoneally at a concentration of 10 mg/kg of body weight, 30 minutes after the ischemic stimulus and then at a concentration of 5 mg/kg every 12 hours for 7 days. […]
The number of positive NeuN cells was quantified in the pyramidal layer of the CA1 hippocampus in control rats and operated rats, and in animals subjected to transient cerebral ischemia 7 and 70 days after the reperfusion (n=4-5 animals for every experimental group). The amounts were collected both from the left and the right hemisphere of each section analyzed by immunohistochemistry, with two sections for every experiment from at least three independent experiments. […]

[4] = test system: transient cerebral ischemia; experiment: Classically conditioned eyelid responses after global ischemia; format: in vivo, Sprague-Dawley rats; conditions: rats subjected to global ischemia; 10 conditioning sessions
Method: as §1, §2
The study of the eyelid responses by means of classic conditioning was carried out in 10 Sprague-Dawley rats per experimental group. Each animal was anesthetized with ketamine (100 mg/kg) and xylazine (20 mg/kg). […]
A quantitative analysis of the classically conditioned eyelid responses from […] (C, dotted line) and mice with ischemia (ISCH, circles), and from mice with ischemia treated with mangiferin (I+MNG, squares) or morin (I+MOR, triangles), is shown in FIG. 4. […]

Compound | excitotoxic neuronal death (cell viability by fluorescein diacetate) [1] | oligodendroglial death induced by excitotoxic stimuli (cell viability by calcein fluorimetry) (oligodendrocyte cultures) | fluorescence levels emitted by oxidized hydroethidine in neurons of the pyramidal layer of the CA1 region [2] | number of NeuN+ cells in the pyramidal layer of the CA1 hippocampus [3] | learning capacity (conditioned eyelid responses) [4]
O=c1c2cc(O)c(O)cc2oc2cc(O)c([C@@H]3O[C@H](CO)[C@@H](O)[C@H](O)[C@H]3O)c(O)c12 [mangiferin] | significantly attenuates excitotoxic neuronal death | protect from neuronal and oligodendroglial death | reduction | larger; also recorded: significant increase of positive NeuN^+ cells | conserve the learning capacity
morin | significantly attenuates excitotoxic neuronal death | protect from neuronal and oligodendroglial death | reduction | larger; also recorded: significant increase of positive NeuN^+ cells | conserve the learning capacity
